≈ marks a conversion by molar mass, not a printed value.

The test system of the assay is S. aureus. Description: Minimum inhibitory concentrations (MICs) for S. aureus of exemplary compounds (Table 2). In kind it is cell-based. To be noted: Staphylococcus aureus, minimum inhibitory concentrations for S. aureus; read-out: MICs. An outline of the steps: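 MICs (μg/mL) against S. aureus come from microtiter-tray dilution susceptibility testing per NCCLS M7-A5, comparing growth with and without compound.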
For `CC(=O)NC[C@H]1CN(c2ccc(-c3ccc(CNCc4cc(C)oc4C)cc3)c(F)c2)C(=O)O1` [Compound 4103, N-[3-(4′-{[(2,5-Dimethyl-furan-3-ylmethyl)-amino]-methyl}-2-fluoro-biphenyl-4-yl)-2-oxo-oxazolidin-5-(S)-ylmethyl]-acetamide], the MIC stood at 8 µg/mL (≈ 17.2 µM).
The result for `CC(=O)NC[C@H]1CN(c2ccc(-c3ccc(CNCc4c(-c5ccccc5)noc4C)cc3)c(F)c2)C(=O)O1` [Compound 4104, N-[3-(2-Fluoro-4′-{[(5-methyl-3-phenyl-isoxazol-4-ylmethyl)-amino]-methyl}-biphenyl-4-yl)-2-oxo-oxazolidin-5-(S)-ylmethyl]-acetamide] reads 0.25 µg/mL (≈ 0.473 µM).
Turning to `CC(=O)NC[C@H]1CN(c2ccc(-c3ccc(CNCc4cc(C)oc4C(F)(F)F)cc3)c(F)c2)C(=O)O1` [Compound 4105, N-[3-(2-Fluoro-4′-{[(5-methyl-2-trifluoromethyl-furan-3-ylmethyl)-amino]-methyl}-biphenyl-4-yl)-2-oxo-oxazolidin-5-(S)-ylmethyl]-acetamide], the MIC amounted to 0.5 µg/mL (≈ 0.962 µM).
The result for `CC(=O)NC[C@H]1CC(c2ccc(-c3ccc(CNC(=O)c4ccccc4C(=O)O)cc3)cc2)=NO1` [Compound 4106, N-{4′-[5-(R)-(Acetylamino-methyl)-4,5-dihydro-isoxazol-3-yl]-biphenyl-4-ylmethyl}-phthalamic acid] reads 128 µg/mL (≈ 271 µM); that for `CC(=O)NC[C@H]1CC(c2ccc(-c3ccc(CNC(=O)c4ccccc4C(=O)O)cc3)nc2)=NO1` [Compound 4107, N-(4-{5-[5-(R)-(Acetylamino-methyl)-4,5-(S)-dihydro-isoxazol-3-yl]-pyridin-2-yl}-benzyl)-phthalamic acid], 128 µg/mL (≈ 271 µM).
For the compound `CC(=O)NC[C@H]1CN(c2ccc(-c3ccc(CNCc4sc(C)nc4C)cc3)c(F)c2)C(=O)O1` [Compound 4108, N-[3-(4′-{[(2,4-Dimethyl-thiazol-5-ylmethyl)-amino]-methyl}-2-fluoro-biphenyl-4-yl)-2-oxo-oxazolidin-5-(S)-ylmethyl]-acetamide], the MIC was 4 µg/mL (≈ 8.29 µM).
In the case of `CC(=O)NC[C@H]1CN(c2ccc(-c3ccc(CNCc4c(C)noc4C)cc3)c(F)c2)C(=O)O1` [Compound 4109, N-[3-(4′-{[(3,5-Dimethyl-isoxazol-4-ylmethyl)-amino]-methyl}-2-fluoro-biphenyl-4-yl)-2-oxo-oxazolidin-5-(S)-ylmethyl]-acetamide] it was 1 µg/mL (≈ 2.14 µM); in that of `CC(=O)NC[C@H]1CN(c2ccc(-c3ccc(C(=O)NCc4ccccn4)cc3)c(F)c2)C(=O)O1` [Compound 4110, 4′-[5-(S)-(Acetylamino-methyl)-2-oxo-oxazolidin-3-yl]-2′-fluoro-biphenyl-4-carboxylic acid (pyridin-2-ylmethyl)-amide], 0.25 µg/mL (≈ 0.541 µM).
In the case of `CC(=O)NC[C@H]1CN(c2ccc(-c3ccc(C(=O)NCc4ccco4)cc3)c(F)c2)C(=O)O1` [Compound 4111, 4′-[5-(S)-(Acetylamino-methyl)-2-oxo-oxazolidin-3-yl]-2′-fluoro-biphenyl-4-carboxylic acid (furan-2-ylmethyl)-amide] it was 2 µg/mL (≈ 4.43 µM).
The result for `CC(=O)NC[C@H]1CN(c2ccc(-c3ccc(C(=O)NCCc4scnc4C)cc3)c(F)c2)C(=O)O1` [Compound 4112, 4′-[5-(S)-(Acetylamino-methyl)-2-oxo-oxazolidin-3-yl]-2′-fluoro-biphenyl-4-carboxylic acid [2-(4-methyl-thiazol-5-yl)-ethyl]-amide] reads 0.25 µg/mL (≈ 0.503 µM); that for `CC(=O)NC[C@H]1CN(c2ccc(-c3ccc(CNCc4csc(-c5cccs5)n4)cc3)c(F)c2)C(=O)O1` [Compound 4113, N-[3-(2-Fluoro-4′-{[(2-thiophen-2-yl-thiazol-4-ylmethyl)-amino]-methyl}-biphenyl-4-yl)-2-oxo-oxazolidin-5-(S)-ylmethyl]-acetamide], 0.25 µg/mL (≈ 0.466 µM); that for `CC(=O)NC[C@H]1CN(c2ccc(-c3ccc(CNCCN4CCNC4=O)cc3)c(F)c2)C(=O)O1` [Compound 4114, N-[3-(2-Fluoro-4′-{[2-(2-oxo-imidazolidin-1-yl)-ethylamino]-methyl}-biphenyl-4-yl)-2-oxo-oxazolidin-5-(S)-ylmethyl]-acetamide], 16 µg/mL (≈ 34.1 µM).
As for `CC(=O)NC[C@H]1CN(c2ccc(-c3ccc(C(=O)NCCc4ccccn4)cc3)c(F)c2)C(=O)O1` [Compound 4115, 4′-[5-(S)-(Acetylamino-methyl)-2-oxo-oxazolidin-3-yl]-2′-fluoro-biphenyl-4-carboxylic acid (2-pyridin-2-yl-ethyl)-amide], the MIC came out at 0.5 µg/mL (≈ 1.05 µM).
For `CC(=O)NC[C@H]1CN(c2ccc(-c3ccc(C(=O)NCCc4cnc[nH]4)cc3)c(F)c2)C(=O)O1` [Compound 4116, 4′-[5-(S)-(Acetylamino-methyl)-2-oxo-oxazolidin-3-yl]-2′-fluoro-biphenyl-4-carboxylic acid [2-(3H-imidazol-4-yl)-ethyl]-amide], the MIC worked out at 1 µg/mL (≈ 2.15 µM).
The result for `CC(=O)NC[C@H]1CN(c2ccc(-c3ccc(CNCc4cccnc4N4CCOCC4)cc3)c(F)c2)C(=O)O1` [Compound 4117, N-[3-(2-Fluoro-4′-{[(2-morpholin-4-yl-pyridin-3-ylmethyl)-amino]-methyl}-biphenyl-4-yl)-2-oxo-oxazolidin-5-(S)-ylmethyl]-acetamide] reads 8 µg/mL (≈ 15 µM); that for `CC(=O)NC[C@H]1CN(c2ccc(-c3ccc(CNCc4ccc(N5CCOCC5)nc4)cc3)c(F)c2)C(=O)O1` [Compound 4118, N-[3-(2-Fluoro-4′-{[(6-morpholin-4-yl-pyridin-3-ylmethyl)-amino]-methyl}-biphenyl-4-yl)-2-oxo-oxazolidin-5-(S)-ylmethyl]-acetamide], 8 µg/mL (≈ 15 µM).
The result for `CC(=O)NC[C@H]1CN(c2ccc(-c3ccc(CNCc4ccc(-c5ccccn5)s4)cc3)c(F)c2)C(=O)O1` [Compound 4119, N-[3-(2-Fluoro-4′-{[(5-pyridin-2-yl-thiophen-2-ylmethyl)-amino]-methyl}-biphenyl-4-yl)-2-oxo-oxazolidin-5-(S)-ylmethyl]-acetamide] reads 1 µg/mL (≈ 1.88 µM); that for `COC(=O)c1cc(CNCc2ccc(-c3ccc(N4C[C@H](CNC(C)=O)OC4=O)cc3F)cc2)oc1C` [Compound 4120, 5-[({4′-[5-(S)-(Acetylamino-methyl)-2-oxo-oxazolidin-3-yl]-2′-fluoro-biphenyl-4-ylmethyl}-amino)-methyl]-2-methyl-furan-3-carboxylic acid methyl ester], 1 µg/mL (≈ 1.96 µM).
The result for `CC(=O)NC[C@H]1CN(c2ccc(-c3ccc(CNCc4nc5ccccc5s4)cc3)c(F)c2)C(=O)O1` [Compound 4121, N-[3-(4′-{[(Benzothiazol-2-ylmethyl)-amino]-methyl}-2-fluoro-biphenyl-4-yl)-2-oxo-oxazolidin-5-(S)-ylmethyl]-acetamide] reads 0.5 µg/mL (≈ 0.991 µM); that for `CC(=O)NC[C@H]1CN(c2ccc(-c3ccc(CNCc4csc(-c5ccccc5)n4)cc3)c(F)c2)C(=O)O1` [Compound 4122, N-[3-(2-Fluoro-4′-{[(2-phenyl-thiazol-4-ylmethyl)-amino]-methyl}-biphenyl-4-yl)-2-oxo-oxazolidin-5-(S)-ylmethyl]-acetamide], 1 µg/mL (≈ 1.88 µM).
For `CC(=O)NC[C@H]1CN(c2ccc(-c3ccc(CNCc4c[nH]c(-c5ccccc5)n4)cc3)c(F)c2)C(=O)O1` [Compound 4123, N-[3-(2-Fluoro-4′-{[(2-phenyl-1H-imidazol-4-ylmethyl)-amino]-methyl}-biphenyl-4-yl)-2-oxo-oxazolidin-5-(S)-ylmethyl]-acetamide], the MIC was determined as 16 µg/mL (≈ 31.2 µM).
The result for `CCc1ncc(CNCc2ccc(-c3ccc(N4C[C@H](CNC(C)=O)OC4=O)cc3F)cc2)[nH]1` [Compound 4124, N-[3-(4′-{[(2-Ethyl-3H-imidazol-4-ylmethyl)-amino]-methyl}-2-fluoro-biphenyl-4-yl)-2-oxo-oxazolidin-5-(S)-ylmethyl]-acetamide] reads 16 µg/mL (≈ 34.4 µM); that for `CC(=O)NC[C@H]1CN(c2ccc(-c3ccc(CNCc4c(C(F)(F)F)nn(C)c4Cl)cc3)c(F)c2)C(=O)O1` [Compound 4125, N-[3-(4′-{[(5-Chloro-1-methyl-3-trifluoromethyl-1H-pyrazol-4-ylmethyl)-amino]-methyl}-2-fluoro-biphenyl-4-yl)-2-oxo-oxazolidin-5-(S)-ylmethyl]-acetamide], 0.5 µg/mL (≈ 0.903 µM).
In the case of `CC(=O)NC[C@H]1CN(c2ccc(-c3ccc(CNCc4c(C)nn(C)c4Cl)cc3)c(F)c2)C(=O)O1` [Compound 4126, N-[3-(4′-{[(5-Chloro-1,3-dimethyl-1H-pyrazol-4-ylmethyl)-amino]-methyl}-2-fluoro-biphenyl-4-yl)-2-oxo-oxazolidin-5-(S)-ylmethyl]-acetamide], the MIC amounted to 0.5 µg/mL (≈ 1 µM).
The result for `CC(=O)NC[C@H]1CN(c2ccc(-c3ccc(CNCc4c[nH]nc4-c4cccs4)cc3)c(F)c2)C(=O)O1` [Compound 4127, N-[3-(2-Fluoro-4′-{[(3-thiophen-2-yl-1H-pyrazol-4-ylmethyl)-amino]-methyl}-biphenyl-4-yl)-2-oxo-oxazolidin-5-(S)-ylmethyl]-acetamide] reads 0.5 µg/mL (≈ 0.962 µM); that for `CSc1nc(CNCc2ccc(-c3ccc(N4C[C@H](CNC(C)=O)OC4=O)cc3F)cc2)ccc1C#N` [Compound 4128, N-[3-(4′-{[(5-Cyano-6-methylsulfanyl-pyridin-2-ylmethyl)-amino]-methyl}-2-fluoro-biphenyl-4-yl)-2-oxo-oxazolidin-5-(S)-ylmethyl]-acetamide], 0.5 µg/mL (≈ 0.962 µM).
`CC(=O)NC[C@H]1CN(c2ccc(-c3ccc(CNCc4c(N)oc5ccccc5c4=O)cc3)c(F)c2)C(=O)O1` [Compound 4129, N-[3-(4′-{[(2-Amino-4-oxo-4H-chromen-3-ylmethyl)-amino]-methyl}-2-fluoro-biphenyl-4-yl)-2-oxo-oxazolidin-5-(S)-ylmethyl]-acetamide]: the MIC worked out at 4 µg/mL (≈ 7.54 µM).
The result for `CC(=O)NC[C@H]1CN(c2ccc(-c3ccc(CNCc4cc(-c5ccccc5)oc4C)cc3)c(F)c2)C(=O)O1` [Compound 4130, N-[3-(2-Fluoro-4′-{[(2-methyl-5-phenyl-furan-3-ylmethyl)-amino]-methyl}-biphenyl-4-yl)-2-oxo-oxazolidin-5-(S)-ylmethyl]-acetamide] reads 2 µg/mL (≈ 3.79 µM).

The record behind these values is patent US10471046B2, “Method for treating, preventing, or reducing the risk of skin infection” (Melinta Subsidiary Corp., priority 2014, dated 2019).
